Laboratory results reported in PMC6755732, “Structural, Biochemical, and In Vivo Characterization of MtrR-Mediated Resistance to Innate Antimicrobials by the Human Pathogen Neisseria gonorrhoeae” (Journal of Bacteriology, 2019).
Read-outs that look alike come from different tables or passages of the source.

Assays:
[1] = CAPS buffer; no reference given; cited from earlier work
[2] = target: T1, MtrR-mtrCDE promoter (Neisseria gonorrhoeae, UniProt P39897); assay type: biochemical; conditions: for Fold increase in Kd: versus no bile salt
T1 construct: nearly all 210 residues of each protomer observed, with the exception of residues 1 through 7; hexahistidine tag (thrombin-cleavable) (cleaved yes); made in house
Description: Thus, to rule out any effect of alkaline pH on MtrR-DNA interactions, we buffered the CAPS used in the FP assay to pH 8.0 before testing its effect on DNA binding.
Fluorescence polarization-based DNA binding experiments were performed with a Panvera Beacon 2000 fluorescence polarization system (Invitrogen) utilizing 5′-fluorescein-labeled DNA. Polarization (P) of such 5′-labeled DNA increases as a function of protein binding, and equilibrium dissociation constants are determined by curve fitting the values of millipolarization (P × 10^−3) units against the protein concentration. To determine the effects of various ligands on MtrR-DNA binding, 1 nM 5′-fluoresceinated oligodeoxynucleotide duplexes containing the mtrC operator site in 1 ml binding buffer (20 mM Tris HCl [pH 8.0], 100 mM NaCl, and 2.5% glycerol) were titrated against increasing concentrations of purified MtrR in the presence or absence of the indicated concentrations of bile salt, and the resulting changes in polarization were measured. All the samples were excited at 490 nm, and their polarized emissions were measured at 530 nm. All the data were plotted using Kaleidagraph (Synergy Software) and Prism (GraphPad Software), and the resulting plots were fitted to the following equation: P = {(Pbound − Pfree)[protein]/(KD + [protein])} + Pfree, where P is the polarization measured at a given protein concentration, Pfree is the initial polarization of the free ligand, Pbound is the maximum polarization of specifically bound ligand, KD is the equilibrium dissociation constant, and [protein] is the protein concentration. Nonlinear least-squares analysis was used to determine Pbound, and Kd. The reported binding constants are the average values from at least three independent experimental measurements.

[3] = system: mtrCp-lacZ in JF1 (FA19 ΔmtrR); assay type: cell-based, Neisseria gonorrhoeae
Description: (§1) To determine if sublethal concentrations of bile salts could relieve MtrR-mediated repression of mtrC (and, by inference, the mtrCDE operon), a translational fusion of the promoter region of mtrC to lacZ was used. This fusion system was made in the wild-type (FA19) background ([41]) and cloned into mtrR deletion mutant strain JF1. Using the mtrCp-lacZ fusion, the β-galactosidase activity of the strains grown in the presence or absence of the bile salt chenodeoxycholate, taurodeoxycholate, or glycocholate was measured. The β-galactosidase levels were determined from strains grown overnight on GC agar supplemented with the bile salt at concentrations 4-fold below their specific MICs to ensure that the concentration of each bile salt was in the same biological range (the bile salt concentrations are listed in Table 2).
N. gonorrhoeae strains FA19 (wild type) and JF1 (FA19 ΔmtrR) containing a translational mtrCp-lacZ fusion with the proAB locus were used to assess the ability of bile salts to induce mtrC expression; the construction of these strains has been described previously ([41]). The MIC of bile salts for each strain used in the β-galactosidase assay was determined using a 2-fold agar dilution method ([32]). […]

[4] = system: mtrCp-lacZ in FA19 (wild type); experiment: β-Galactosidase assay of mtrCp-lacZ fusion, strain FA19; assay type: cell-based, Neisseria gonorrhoeae
Description: as §1
N. gonorrhoeae strains FA19 (wild type) and JF1 (FA19 ΔmtrR) containing a translational mtrCp-lacZ fusion with the proAB locus were used to assess the ability of bile salts to induce mtrC expression; the construction of these strains has been described previously ([41]). The MIC of bile salts for each strain used in the β-galactosidase assay was determined using a 2-fold agar dilution method ([32]). Gonococci were grown overnight on GC agar (Difco Laboratories) supplemented with a bile salt (glycocholate, chenodeoxycholate, or taurodeoxycholate) at concentrations that were 4-fold below the MIC. After overnight growth at 37°C under 3.8% (vol/vol) CO2, the bacteria were scraped from the agar plate, resuspended in 1 ml phosphate-buffered saline (pH 7.4), and lysed by freeze-thawing three times, after which the cell debris was pelleted by centrifugation. The lysate was then used to determine β-galactosidase levels as described previously ([63]). All experiments were performed in triplicate with at least three biological replicates conducted on different days.

[5] = target: T2, MtrR-DNA complex (Neisseria gonorrhoeae, UniProt P39897); assay type: biochemical; conditions: EMSA, wild-type MtrR, mtrC promoter oligoduplex
T2 construct: nearly all 210 residues of each protomer observed, with the exception of residues 1 through 7; hexahistidine tag (thrombin-cleavable) (cleaved yes); made in house
Description: To test the hypothesis that these bile salts directly bind to MtrR and potentially derepress gene expression by interfering with the DNA binding activity of MtrR, MtrR-mtrC promoter interactions were tested in the presence and absence of different concentrations of several bile salts. […] It is important to note that this is a competition assay that, due to its experimental design, requires the use of 3 μM DNA and 4 to 10 μM MtrR dimer. Consequently, this means that ∼99.9% of all DNA is MtrR bound.
Complementary oligodeoxynucleotides containing the MtrR binding site from the mtrC promoter (top strand, 5′-[sequence]-3′; an unusual pseudo-direct repeat is underlined) were annealed by heating an equimolar mixture of the top and bottom strands at 95°C for 5 min, followed by slow cooling to room temperature. Binding reactions were carried out in 20-μl volumes of binding buffer (20 mM Tris [pH 8.0], 200 mM NaCl, 10% glycerol, and 1 mM TCEP) containing 1 μg oligoduplex, 1 μg poly(dI-dC), and 4 to 10 μg MtrR. After a 20-minute incubation at room temperature, the preformed complex was incubated with or without various concentrations of selected bile salts at room temperature for an additional 10 min. […] The gels were stained with ethidium bromide and visualized and analyzed with an Alpha Innotech gel documentation instrument. The intensities of free DNA were measured with ImageJII ([61], [62]).

[6] = target: T3, MtrR (Neisseria gonorrhoeae, UniProt P39897); experiment: Isothermal titration calorimetry, wild-type MtrR with bile salts; assay type: binding; conditions: ITC, 25°C, 20 μM MtrR in cell, 250 μM ligand in syringe
T3 construct: A codon optimized gene of MtrR was synthesized by GenScript and cloned into the; hexahistidine tag with TEV protease site (N, cleaved yes); made in house
Description: Purified MtrR was dialyzed extensively against buffer containing 20 mM Tris [pH 8.0], 200 mM NaCl, 10% glycerol, and 1 mM TCEP overnight at 4°C. The stock solutions and the necessary dilutions of the bile salts were prepared using this dialysis buffer. Titrations with 20 μM MtrR in the cell and 250 μM ligand in the syringe were performed using a VP-ITC microcalorimeter (Microcal Inc.). All measurements were conducted at 25°C with a stirring speed of 200 rpm. After subtraction of germane blank data, the titration data were analyzed using the program ORIGIN 5.0.
Protein purification for Isothermal Titration Calorimetry experiments and mutant […]
A codon optimized gene of MtrR was synthesized by GenScript and cloned into the pMCSG7 vector in- frame with the N-terminal Hexa- histidine tag and tobacco etch virus (TEV) protease cleavage site. This construct was used as the template for site- directed mutagenesis and to generate wild- type data in supplemental f igures 5-6 and Isothermal Titration Calorimetry data. This protein was overexpressed and purified as described in the “Materials and Methods” of the document, except the he xa -histidine tag MtrR was cleaved by TEV protease following NiNTA affinity chromatography. Cleaved MtrR was purified from tagged MtrR and cleaved hexa- histidine tag by Ni- NTA aff inity chromatography and then further purified by size exclusion chromatography (S200).

T1 sequence (P39897 whole entry): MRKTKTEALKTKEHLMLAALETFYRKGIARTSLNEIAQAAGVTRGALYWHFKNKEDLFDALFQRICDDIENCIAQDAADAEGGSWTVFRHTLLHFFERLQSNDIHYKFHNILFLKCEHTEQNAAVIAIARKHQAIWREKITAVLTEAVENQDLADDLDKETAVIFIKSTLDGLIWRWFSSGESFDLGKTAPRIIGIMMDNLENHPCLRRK
T3 sequence (P39897 whole entry): as above
T2 sequence (P39897 whole entry, one chain of several): as the sequence (P39897 whole entry) above

| Structure (SMILES) | pKa [1] | Fold reduction of MtrR affinity for the mtrC operator sequence ([2]; 10 mM CAPS, pH 8.0) | Fold increase of mtrCp-lacZ activity [3] | Fold increase in Kd ([2]; 1 mM bile salt) | Fold increase in Kd ([2]; 1 mM bile salt, listed as glycocholate) | Fold increase in Kd ([2]; 5 mM bile salt) | Fold increase in Kd ([2]; 10 mM bile salt) | MtrR-dependent derepression of the mtrC promoter ([4]; FA19 compared with ΔmtrR strain JF1, sublethal bile salt) | Fold increase of mtrCp-lacZ activity ([4]; strain FA19, grown on GC agar with bile salt 4-fold below MIC versus normal agar, mM concentration in parentheses in the cell) | Concentration that disrupts the preformed MtrR-DNA complex [5] | Kd of bile salt binding to WT MtrR [6] |
| --- | --- | --- | --- | --- | --- | --- | --- | --- | --- | --- | --- |
| O=S(=O)(O)CCCNC1CCCCC1 [CAPS, N-cyclohexyl-3-aminopropanesulfonic acid] | ~10.5 | > 300 fold | – | – | – | – | – | – | – | – | – |
| C[C@H](CCC(=O)NCC(=O)O)[C@H]1CC[C@H]2[C@@H]3[C@H](O)C[C@@H]4C[C@H](O)CC[C@]4(C)[C@H]3C[C@H](O)[C@]12C [Glycocholate, glycocholate] | – | – | 2.11 (0.96) | 1.2 | no effect | 5 | 6 | failed to exhibit MtrR-dependent derepression | 1.43 (0.48) | > 40 mM | no measurable binding |
